Assay results published in US20250129067A1 (Progentos Therapeutics, Inc., priority 2021, published 2025).
Read-outs that look alike come from different tables or passages of the source.

Experiments:
[1] = system: Oligodendrocyte progenitor cells (OPCs); assay: In vitro OPC differentiation assay, GPR17 expression (immunocytochemistry); conditions: 72 hours; for GPR17 Fold Induction (Over Vehicle; 3 μM): 3 μM (10× concentration, final 0.3 μM)
[2] = biological target: PDGFRα (Homo sapiens (Human), UniProt P16234); assay: PDGFRα kinase enzyme assay (Promega PDGFRα Kinase Enzyme System, ADP-Glo); format: biochemical; conditions: 150 uM ATP
Outline: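 Purified PDGFRα protein (20 ng) reacted with test compound per the Promega kinase system protocol. ADP formed was measured by ADP-Glo luminescence against a standard curve, giving IC50.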

[3] = system: Oligodendrocyte progenitor cells (OPCs); assay: In vitro OPC differentiation assay, MBP expression (immunocytochemistry)
[4] = 11-point dose response, 10,000 nM to 0.169 nM, BLQ = below limit of quantitation, read-out: IC50 Values on PDGFRα Kinase Inhibition, IC50
[5] = 72 hours of treatment, fold change over vehicle
[6] = 5 μM (10× concentration, final 0.5 μM), fold change over vehicle
[7] = 20 ng purified PDGFRα, Poly (Glu4Tyr1) substrate, two hours, 11-point dose response, read-out: IC50 Values on PDGFRα Kinase Inhibition

PDGFRα, sequence (P16234 24-1089): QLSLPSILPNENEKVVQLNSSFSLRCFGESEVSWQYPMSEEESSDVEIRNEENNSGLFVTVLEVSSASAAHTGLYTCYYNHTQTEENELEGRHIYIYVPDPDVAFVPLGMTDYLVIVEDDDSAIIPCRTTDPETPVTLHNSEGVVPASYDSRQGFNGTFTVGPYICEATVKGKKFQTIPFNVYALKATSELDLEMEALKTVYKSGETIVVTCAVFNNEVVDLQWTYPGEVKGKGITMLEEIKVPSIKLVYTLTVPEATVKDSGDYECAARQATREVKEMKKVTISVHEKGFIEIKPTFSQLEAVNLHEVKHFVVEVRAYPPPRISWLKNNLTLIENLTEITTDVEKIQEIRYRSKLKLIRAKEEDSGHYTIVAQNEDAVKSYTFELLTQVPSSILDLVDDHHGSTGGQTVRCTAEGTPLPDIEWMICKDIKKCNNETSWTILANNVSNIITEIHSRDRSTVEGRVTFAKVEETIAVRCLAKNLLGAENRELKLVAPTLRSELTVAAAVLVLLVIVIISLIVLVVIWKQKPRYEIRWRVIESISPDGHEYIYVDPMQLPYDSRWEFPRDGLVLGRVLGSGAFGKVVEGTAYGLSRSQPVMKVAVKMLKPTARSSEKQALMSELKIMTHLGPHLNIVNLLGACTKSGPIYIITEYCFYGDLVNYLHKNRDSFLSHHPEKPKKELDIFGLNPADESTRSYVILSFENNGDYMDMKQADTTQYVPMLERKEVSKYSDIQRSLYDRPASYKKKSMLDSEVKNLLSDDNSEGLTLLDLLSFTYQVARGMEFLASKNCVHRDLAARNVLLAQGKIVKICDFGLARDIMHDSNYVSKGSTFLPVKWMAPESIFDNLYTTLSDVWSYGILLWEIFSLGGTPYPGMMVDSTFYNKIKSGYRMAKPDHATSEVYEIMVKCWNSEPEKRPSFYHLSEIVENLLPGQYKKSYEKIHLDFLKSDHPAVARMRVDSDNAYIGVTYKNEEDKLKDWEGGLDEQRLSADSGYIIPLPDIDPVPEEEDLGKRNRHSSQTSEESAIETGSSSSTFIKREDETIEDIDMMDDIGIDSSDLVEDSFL

Compound | GPR17 Fold Induction (Over Vehicle; 3 μM) ([1]; fold change over vehicle) | IC50 [2, 4] [µM] | MBP Fold Induction (Over vehicle) [3, 5] | GPR17 Fold Induction (Over Vehicle; 5 μM) [1, 6] | GPR17 Fold Induction (Over Vehicle; 5 μM) ([1]; primary rat OPCs, 5 μM (10x; final 0.5 μM per method), percent GPR17+ cells as fold change over vehicle) | IC50 [2, 7] [µM] | MBP Fold Induction (Over vehicle) ([3]; primary rat OPCs, 72 hours, 3 uM (10x; final 0.3 uM per method), percent MBP+ cells as fold change over vehicle)
Cn1cc(-c2ccc3c(NC4CN(c5ncc(Cc6ccccc6)cn5)C4)cnn3c2)cn1 [Compound 131, N-(1-(5-benzylpyrimidin-2-yl)azetidin-3-yl)-6-(1-methyl-1H-pyrazol-4-yl)pyrazolo[1,5-a]pyridin-3-amine] | 6.36 | 3.88 | 2.49 | – | – | – | –
Cn1cc(-c2ccc3c(N4CCN(c5ncc(Cc6ccc(Cl)cc6)cn5)CC4)cnn3c2)cn1 [Compound 65, 3-{4-[5-(4-chlorobenzyl)pyrimidin-2-yl]piperazin-1-yl}-6-(1-methyl-1H-pyrazol-4-yl)pyrazolo[1,5-a]pyridine] | 5.18 | 0.67 | 1.71 | – | – | – | –
C[C@@H](OC(=O)N1CCN(c2cnn3nc(-c4cnn(C)c4)ccc23)CC1)c1ccccc1 [Compound 50, (R)-1-phenylethyl 4-(6-(1-methyl-1H-pyrazol-4-yl)pyrazolo[1,5-b]pyridazin-3-yl)piperazine-1-carboxylate] | 5.00 | 3.14 | 1.82 | – | – | – | –
Cn1cc(-c2ccc3c(C4=CCN(c5ncc(Cc6ccccc6)cn5)C4)cnn3c2)cn1 [Compound 51, 3-[1-(5-benzylpyrimidin-2-yl)-2,5-dihydro-1H-pyrrol-3-yl]-6-(1-methyl-1H-pyrazol-4-yl)pyrazolo[1,5-a]pyridine] | 5.14 | 0.423 | 2.41 | 2.52 | – | – | –
CC(C)C(O)c1cnc(N2CCN(c3cnn4cc(-c5cnn(C)c5)ccc34)CC2)nc1 (centres unmarked) [Compound 176, 2-methyl-1-(2-{4-[6-(1-methyl-1H-pyrazol-4-yl)pyrazolo[1,5-a]pyridin-3-yl]piperazin-1-yl}pyrimidin-5-yl)propan-1-ol] | 3.90 | 2.08 | 1.48 | – | – | – | –
Cn1cc(-c2ccc3c(N4CCN(C(=O)OC5CCC5)CC4)cnn3c2)cn1 [Compound 32, cyclobutyl 4-[6-(1-methyl-1H-pyrazol-4-yl)pyrazolo[1,5-a]pyridin-3-yl]piperazine-1-carboxylate] | 10.59 | 0.32 | 2.96 | 6.99 | – | – | –
CN(C[C@@H]1COCCO1)S(=O)(=O)Nc1ccc2ccc3ncc(-c4cnn(C)c4)cc3c(=O)c2c1 [MK 2461, reference compound] | – | – | – | – | 7.10 | 0.0108 | 6.11
Cn1cc(-c2ccc3c(N4CCN(c5ncc(C(O)c6ccccc6)cn5)CC4)cnn3c2)cn1 (centres unmarked) [Compound 71, (2-{4-[6-(1-Methyl-1H-pyrazol-4-yl)pyrazolo[1,5-a]pyridin-3-yl]piperazin-1-yl}pyrimidin-5-yl)(phenyl)methanol] | 9.66 | 0.00527 | 25.00 | – | – | – | –
CC(=O)OC(c1ccc(F)cc1)c1cnc(N2CCN(c3cnn4cc(-c5cnn(C)c5)ccc34)CC2)nc1 (centres unmarked) [Compound 264, (4-fluorophenyl)(2-(4-(6-(1-methyl-1H-pyrazol-4-yl)pyrazolo[1,5-a]pyridin-3-yl)piperazin-1-yl)pyrimidin-5-yl)methyl acetate] | 6.72 | 0.0268 | 5.22 | – | – | – | –
CC(C)Cc1cnc(N2CCN(c3cnn4cc(-c5cnn(C)c5)ccc34)CC2)nc1 [Compound 189, 3-(4-(5-isobutylpyrimidin-2-yl)piperazin-1-yl)-6-(1-methyl-1H-pyrazol-4-yl)pyrazolo[1,5-a]pyridine] | 7.61 | 5.28 | 4.70 | – | – | – | –
c1ccc(Cc2cnc(N3CCN(c4cnn5cc(-c6cn[nH]c6)ccc45)CC3)nc2)cc1 [Compound 255, 3-[4-(5-benzylpyrimidin-2-yl)piperazin-1-yl]-6-(1H-pyrazol-4-yl)pyrazolo-[1,5-a]pyridine] | 8.56 | 1.14 | 2.58 | – | – | – | –
Cn1cc(-c2ccc3c(N4CCN(c5ncc(Cc6ccccc6)cn5)CC4)cnn3n2)cn1 [Compound 8, 3-[4-(5-benzylpyrimidin-2-yl)piperazin-1-yl]-6-(1-methyl-1H-pyrazol-4-yl)pyrazolo[1,5-b]pyridazine] | 10.86 | 1.68 | 2.33 | 3.18 | – | – | –
CCC(CC)OC(=O)N1CCN(c2cnn3cc(-c4cnn(C)c4)ccc23)CC1 [Compound 16, 1-ethylpropyl 4-[6-(1-methyl-1H-pyrazol-4-yl)pyrazolo[1,5-a]pyridin-3-yl]piperazine-1-carboxylate] | 6.82 | 0.283 | 5.15 | 2.39 | – | < 1 | –
C[C@@H](OC(=O)N1CCN(c2cnn3cc(-c4cnn(C)c4)ccc23)CC1)c1ccc(F)c(F)c1 [Compound 266, (1R)-1-(3,4-difluorophenyl]ethyl 4-[6-(1-methyl-1H-pyrazol-4-yl)pyrazolo[1,5-a]pyridin-3-yl]piperazine-1-carboxylate] | 4.88 | 0.00269 | 14.20 | – | – | – | –
C[C@H](OC(=O)N1CCN(c2cnn3cc(-c4cnn(C)c4)ccc23)CC1)c1ccccc1 [Compound 34, (S)-1-phenylethyl 4-(6-(1-methyl-1H-pyrazol-4-yl)pyrazolo[1,5-a]pyridin-3-yl)piperazine-1-carboxylate] | 5.16 | 0.785 | 2.00 | 5.12 | – | – | –
COCCn1cc(-c2ccc3c(N4CCN(c5ncc(Cc6ccccc6)cn5)CC4)cnn3c2)cn1 [Compound 29, 3-[4-(5-benzylpyrimidin-2-yl)piperazin-1-yl]-6-[1-(2-methoxyethyl)-1H-pyrazol-4-yl]pyrazolo[1,5-a]pyridine] | 9.41 | 0.925 | 4.26 | 3.20 | – | – | –
CC(C)(C)OC(=O)N1CCN(c2cnn3cc(-c4cnn(C5CCOCC5)c4)ccc23)CC1 [Compound 235] | 9.32 | 0.467 | 10.35 | – | – | – | –
CN(Cc1ccccc1)S(=O)(=O)N1CCN(c2cnn3cc(-c4cnn(C)c4)ccc23)CC1 [Compound 158, N-benzyl-N-methyl-4-(6-(1-methyl-1H-pyrazol-4-yl)pyrazolo[1,5-a]pyridin-3-yl)piperazine-1-sulfonamide] | 4.57 | > 10 | 4.88 | – | – | – | –
Cn1cc(-c2ccc3c(N4CCN(c5ncccn5)CC4)cnn3c2)cn1 [Compound 10, 6-(1-methyl-1H-pyrazol-4-yl)-3-(4-pyrimidin-2-ylpiperazin-1-yl)pyrazolo[1,5-a]pyridine] | 5.65 | 6.19 | 1.41 | 3.81 | – | – | –
